According to patent US20110269758A1, “NAPHTHYRIDINONES AS PROTEIN KINASE INHIBITORS” (MERCK PATENT GMBH, priority 2008, published 2011):

What follows are compounds tested against T1, Aurora Kinase A (Homo sapiens, UniProt O14965) (assay: Biochemical enzyme assay for Aurora A activity (Caliper LC3000 / Desktop Profiler mobility shift)). Conditions: not given.
T1 construct: full length Aurora A (1-403 amino acids); purchased Carna Biosciences 05-101
T1 sequence (O14965 1-403): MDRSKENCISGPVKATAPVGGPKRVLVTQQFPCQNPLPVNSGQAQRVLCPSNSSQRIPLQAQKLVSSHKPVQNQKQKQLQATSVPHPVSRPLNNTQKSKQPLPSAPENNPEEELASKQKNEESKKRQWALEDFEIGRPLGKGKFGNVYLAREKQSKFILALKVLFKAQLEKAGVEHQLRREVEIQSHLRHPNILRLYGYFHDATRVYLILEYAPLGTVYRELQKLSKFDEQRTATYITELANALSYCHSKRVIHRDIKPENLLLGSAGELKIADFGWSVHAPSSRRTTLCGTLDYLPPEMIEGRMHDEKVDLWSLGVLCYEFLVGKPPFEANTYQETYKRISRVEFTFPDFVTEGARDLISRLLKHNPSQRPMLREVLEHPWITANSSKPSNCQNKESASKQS
Description: The Aurora assays described here were performed on two Caliper Life Sciences systems, the LC3000 and the Desktop Profiler. These provide data on enzyme activity via measurement of the relative amounts of phosphorylated or unphosphorylated fluorescently labelled substrate peptide at the end of an enzymatic reaction. These different states of peptide are resolved by applying a potential difference across the sample. The presence of a charged phosphate group on the product (as opposed to the substrate) causes a different peptide mobility between the two peptides. This is visualized by excitation of a fluorescent label on the substrate and product peptides and represented as peaks within the analysis software.
In order to measure inhibitor activity of Aurora A inhibitors in the Caliper Life Sciences LC3000, a TTP Mosquito liquid handling instrument was used to place 0.25 μl of an appropriate concentration of inhibitor in 100% DMSO (for a dose response curve calculation) into each well of a 384-well plate.
The reaction was incubated for 90 min at 25° C., and then stopped by the addition of 70 μl of Stop buffer (100 mM HEPES pH 7.5, 0.015% Brij-35, 10 mM EDTA (Sigma, E7889)).
The plate was read on a Caliper LC 3000 in an Off-Chip mobility shift assay format, using the following parameters for a 12-sipper chip: screening pressure −1.8 psi, upstream voltage −2700, downstream voltage −1000. These conditions cause unphosphorylated substrate and phosphorylated product peptide to resolve as separate peaks allowing direct measurement of percentage of conversion of substrate to product.
The Desktop Profiler utilizes the same prinicipal as the LC 3000 for calculating percentage conversion of a substrate to product. Caliper Life Sciences provided proprietary flash frozen pre-made 384 well plates containing selected kinases. Each column in the 384 well plate contained a particular selected kinase. A second plate, the ‘substrate plate’ contained a mix of fluorescently labeled peptide substrate and ATP. These were arranged in columns so that transfer for substrate plate to enzyme plate provided the correct enzyme with the correct substrate/ATP concentration.
Compounds were added to a thawed enzyme plate in the desired format, in single concentrations. Reactions were initiated by transfer of the substrate/ATP mix from the substrate plate. The enzyme plate was incubated for 90 mins at 25° C. The reaction was stopped by addition of 70 μl of Stop Buffer (100 mM HEPES pH 7.5, 0.015% Brij-35, 10 mM EDTA (Sigma, E7889)).
Plates were read in a manner identical to that of the LC3000, and the ratio between substrate and product peaks provided the activity of the enzyme in that well.
Compound `COc1ccccc1C(=O)Nc1ccc(N)cc1` [Compound 16, N-(4-Aminophenyl)-2-methoxy-benzamide] has an IC50 of 1 to 300 nM.

Same assay, conditions: GST-Aurora A, 15 μM ATP, 90 min at 25° C.; LC3000 or Desktop Profiler; read-out: Aurora Kinase A IC50
For `Nc1ccc(NC(=O)c2cccc(C(F)(F)F)c2F)cc1` [Compound 7, N-(4-Aminophenyl)-2-fluoro-3-trifluoromethyl-benzamide], the IC50 was 1 to 300 nM. `Nc1ccc(NC(=O)c2ccc(F)cc2C(F)(F)F)cc1` [Compound 8, N-(4-Aminophenyl)-4-fluoro-2-trifluoromethyl-benzamide] was tested, and the IC50 was 1 to 300 nM. For `Nc1ccc(NC(=O)c2ccc(F)c(F)c2)cc1` [Compound 10, N-(4-Aminophenyl)-3,4-difluoro-benzamide], the IC50 was 301 to 600 nM. `Nc1ccc(NC(=O)c2cc(F)cc(F)c2)cc1` [Compound 11, N-(4-Aminophenyl)-3,5-difluoro-benzamide] was tested, and the IC50 was 1 to 300 nM. With `Nc1ccc(NC(=O)c2ccc(F)cc2F)cc1` [Compound 12, N-(4-Aminophenyl)-2,4-difluoro-benzamide] the IC50 was 1 to 300 nM. `Nc1ccc(NC(=O)C2CCCCC2)cc1` [Compound 13, Cyclohexanecarboxylic acid (4-aminophenyl)-amide] was tested, and the IC50 was 1 to 300 nM. With `Nc1ccc(NC(=O)c2cc(C(F)(F)F)cc(C(F)(F)F)c2)cc1` [Compound 14, N-(4-Aminophenyl)-3,5-bis-trifluoromethyl-benzamide] the IC50 was 1 to 300 nM. `Nc1ccc(NC(=O)c2ccc3ccccc3c2)cc1` [Compound 15, Naphthalene-2-carboxylic acid (4-aminophenyl)-amide] showed an IC50 of 1 to 300 nM. `Cc1ccc(C(=O)Nc2ccc(N)cc2)cc1` [Compound 17, N-(4-Aminophenyl)-4-methyl-benzamide] was tested, and the IC50 was 1 to 300 nM. In the case of `Nc1ccc(NC(=O)c2ccc(C(F)(F)F)cc2F)cc1` [Compound 18, N-(4-Aminophenyl)-2-fluoro-4-trifluoromethyl-benzamide], the IC50 is reported as 1 to 300 nM. In the case of `Nc1ccc(NC(=O)c2cc(F)cc(C(F)(F)F)c2)cc1` [Compound 19, N-(4-Aminophenyl)-3-fluoro-5-trifluoromethyl-benzamide], the IC50 is reported as 1 to 300 nM. In the case of `Nc1ccc(NC(=O)c2ccc(Cl)cc2)cc1` [Compound 20, N-(4-Aminophenyl)-4-chloro-benzamide], the IC50 is reported as 1 to 300 nM. `Nc1ccc(NC(=O)c2ccc(OC(F)(F)F)cc2)cc1` [Compound 21, N-(4-Aminophenyl)-4-trifluoromethoxy-benzamide] gave an IC50 of 1 to 300 nM. `Cc1ccccc1C(=O)Nc1ccc(N)cc1` [Compound 22, N-(4-Aminophenyl)-2-methyl-benzamide] gave an IC50 of 601 to 1000 nM. In the case of `Cc1cccc(C(=O)Nc2ccc(N)cc2)c1` [Compound 23, N-(4-Aminophenyl)-3-methyl-benzamide], the IC50 is reported as over 1000 nM. `Nc1ccc(NC(=O)c2cccc3ccccc23)cc1` [Compound 24, Naphthalene-1-carboxylic acid (4-aminophenyl)-amide] was tested, and the IC50 was over 1000 nM. `Nc1ccc(NC(=O)c2c(Cl)cccc2Cl)cc1` [Compound 25, N-(4-Aminophenyl)-2,6-dichloro-benzamide] was tested, and the IC50 was 1 to 300 nM. `Nc1ccc(NC(=O)c2ccc(Cl)c(Cl)c2)cc1` [Compound 26, N-(4-Aminophenyl)-3,4-dichloro-benzamide] showed an IC50 of 1 to 300 nM. `Nc1ccc(NC(=O)c2ccc(Cl)cc2Cl)cc1` [Compound 27, N-(4-Aminophenyl)-2,4-dichloro-benzamide] showed an IC50 of 1 to 300 nM. `CC(C)(C)C(=O)Nc1cc(Cl)ccn1` [Compound 28, N-(4-chloropyridin-2-yl)-2,2-dimethylpropanamide] showed an IC50 of 1 to 300 nM. Work on `CC(C)(C)C(=O)Nc1nccc(Cl)c1C=O` [Compound 29, N-(4-chloro-3-formylpyridin-2-yl)-2,2-dimethylpropanamide] yielded an IC50 of 301 to 600 nM. Compound `CC(C)(C)OC(=O)CC(O)c1c(Cl)ccnc1NC(=O)C(C)(C)C` (stereo not shown) [Compound 30, Tert-butyl 3-{4-chloro-2-[(2,2-dimethylpropanoyl)amino]pyridin-3-yl}-3-hydroxypropanoate] has an IC50 of 1 to 300 nM. `O=c1ccc2c(Cl)ccnc2[nH]1` [Compound 31, 5-Chloro-1,8-naphthyridi-2(1H)-one] showed an IC50 of 1 to 300 nM. `O=c1ccc2c(Nc3c(Cl)ccc4c3OCO4)ccnc2[nH]1` [Compound 31a, 5-(5-chlorobenzo[d][1,3]dioxo-4-ylamino)-1,8-naphthyridin-2(1H)-one] was tested, and the IC50 was 1 to 300 nM. For `O=C(Nc1ccc(Nc2ccnc3[nH]c(=O)ccc23)cc1)c1ccccc1` [Compound 32, N-(4-(7-oxo-7,8-dihydro-1,8-naphthyridin-4-yl-amino)phenyl)benzamide], the IC50 was 1 to 300 nM. `O=C(Nc1ccc(Nc2ccnc3[nH]c(=O)ccc23)cc1)c1ccccc1F` [Compound 34, 2-Fluoro-N-(4-(7-oxo-7,8-dihydro-1,8-naphthyridin-4-yl-amino)phenyl)benzamide] gave an IC50 of 1 to 300 nM. `O=C(Nc1ccc(Nc2ccnc3[nH]c(=O)ccc23)cc1)c1cccc(F)c1` [Compound 35, 3-Fluoro-N-(4-(7-oxo-7,8-dihydro-1,8-naphthyridin-4-yl-amino)phenyl)benzamide] showed an IC50 of 1 to 300 nM. `O=C(Nc1ccc(Nc2ccnc3[nH]c(=O)ccc23)cc1)c1ccc(F)cc1` [Compound 36, 4-Fluoro-N-(4-(7-oxo-7,8-dihydro-1,8-naphthyridin-4-yl-amino)phenyl)benzamide] showed an IC50 of 1 to 300 nM. `O=C(Nc1ccc(Nc2ccnc3[nH]c(=O)ccc23)cc1)c1ccc(F)cc1C(F)(F)F` [Compound 40, 4-Fluoro-2-trifluoromethyl-N-(4-(7-oxo-7,8-dihydro-1,8-naphthyridin-4-yl-amino)phenyl)benzamide] showed an IC50 of 1 to 300 nM. `O=C(Nc1ccc(Nc2ccnc3[nH]c(=O)ccc23)cc1)c1c(F)cccc1F` [Compound 41, 2,6-Difluoro-N-(4-(7-oxo-7,8-dihydro-1,8-naphthyridin-4-yl-amino)phenyl)benzamide] was tested, and the IC50 was 1 to 300 nM. In the case of `O=C(Nc1ccc(Nc2ccnc3[nH]c(=O)ccc23)cc1)c1ccc(F)c(F)c1` [Compound 42, 3,4-Difluoro-N-(4-(7-oxo-7,8-dihydro-1,8-naphthyridin-4-yl-amino)phenyl)benzamide], the IC50 is reported as 1 to 300 nM. With `O=C(Nc1ccc(Nc2ccnc3[nH]c(=O)ccc23)cc1)c1cc(F)cc(F)c1` [Compound 43, 3,5-Difluoro-N-(4-(7-oxo-7,8-dihydro-1,8-naphthyridin-4-yl-amino)phenyl)benzamide] the IC50 was 1 to 300 nM. Work on `O=C(Nc1ccc(Nc2ccnc3[nH]c(=O)ccc23)cc1)c1ccc(F)cc1F` [Compound 44, 2,4-Difluoro-N-(4-(7-oxo-7,8-dihydro-1,8-naphthyridin-4-yl-amino)phenyl)benzamide] yielded an IC50 of 301 to 600 nM. For `O=C(Nc1ccc(Nc2ccnc3[nH]c(=O)ccc23)cc1)C1CCCCC1` [Compound 45, N-(4-(7-oxo-7,8-dihydro-1,8-naphthyridin-4-yl-amino)phenyl)cyclohexanecarboxamide], the IC50 was 1 to 300 nM. With `O=C(Nc1ccc(Oc2ccnc3[nH]c(=O)ccc23)cc1)c1ccccc1` [Compound 46, N-(4-(7-oxo-7,8-dihydro-1,8-naphthyridin-4-yloxy)phenyl)benzamide] the IC50 was 1 to 300 nM. With `O=C(Nc1ccccc1Nc1ccnc2[nH]c(=O)ccc12)c1ccccc1` [Compound 47, N-(2-(7-oxo-7,8-dihydro-1,8-naphthyridin-4-ylamino)phenyl)benzamide] the IC50 was 1 to 300 nM. With `O=C(Nc1ccccc1)c1ccc(Nc2ccnc3[nH]c(=O)ccc23)cc1` [Compound 48, 4-(7-Oxo-7,8-dihydro-1,8-naphthyridin-4-ylamino)-N-phenyl-benzamide] the IC50 was over 1000 nM. Work on `O=C(Nc1ccc(Nc2ccnc3[nH]c(=O)ccc23)cc1)c1cc(C(F)(F)F)cc(C(F)(F)F)c1` [Compound 49, 3,5-Bis(trifluoromethyl)-N-(4-(7-oxo-7,8-dihydro-1,8-naphthyridin-4-yl-amino)phenyl)benzamide] yielded an IC50 of over 1000 nM. `O=C(Nc1ccc(Nc2ccnc3[nH]c(=O)ccc23)cc1)c1ccc(OC(F)(F)F)cc1` [Compound 56, 4-Trifluoromethoxy-N-(4-(7-oxo-7,8-dihydro-1,8-naphthyridin-4-yl-amino)phenyl)benzamide] showed an IC50 of 601 to 1000 nM.
